Assays:
c-MYC Pu22 G4 DNA = assay: FRET melting assay, c-MYC Pu22 G4 DNA; assay type: binding, human; conditions: c-MYC Pu22 G4 DNA 0.2 μM; for increased thermal stability (ΔTm): 40 equivalences of added compound
Text: The synthesized compounds (2–11) were first analyzed using a Förster resonance energy transfer (FRET) assay (Figure 2A). This assay measures the compounds’ ability to affect the thermal stability of fluorescently labeled DNA, in this case, the c-MYC Pu22 G4 DNA (Table S1). […] The addition of one methyl group to the quinazoline core (3) provides almost twice as strong thermal stability compared to 2. The addition of a second methyl group (4) further increased stabilization, albeit modestly (by 0.5 °C). This slight increase between 3 and 4 could stem from the suboptimal positioning of the added methyl substituent in relation to the guanines on the G4 surface, compared to other positions on the quinazoline ring. […] Furthermore, the methyl-substituted (4) and the methoxy-substituted (6) display a similar G4 stabilization despite the strong electrostatic character of the methoxy substituent compared to the neutral methyl group, which further supports that these interactions are dispersion-driven. This conclusion is further supported by the fact that the replacement of the methoxy group in 6 with chlorine in 7 results in a very similar stabilization as 3, 4, and 6.
Synthetic labeled oligonucleotides for the FRET study were purchased from Eurofins Genomics. Stock solutions were prepared in MQ-water at 100 μM concentration. The sequences used are listed in Supporting Information Table S1. All the oligonucleotides except Pu22 were prefolded in 10 mM lithium cacodylate buffer (pH 7.4), with 10 mM KCl and 90 mM LiCl by heating for 10 min at 95 °C and then cooling in fridge for at least 1 h. Pu22 was folded in 10 mM lithium cacodylate buffer (pH 7.4), with 2 mM KCl and 98 mM LiCl.
The FRET occurs between two dyes (5′-FAM as donor and 3′-TAMRA as acceptor) linked at both extremities of a DNA oligonucleotide. When the oligonucleotides are folded into G4 structures, the donor and acceptor are in proximity, which results in an energy transfer from the donor to the acceptor. This process can be detected by a reduction in the fluorescence emission of the donor. Fluorescence emission of the donor is recovered when the temperature increment triggers the thermal denaturation of the G4 structure. The experiments were performed in a Bio-Rad CFX96 real-time PCR device at temperatures from 10 to 95 °C at 1.5 °C/m heating rate using a 492 nm excitation wavelength and a 516 nm detection wavelength in 96-well plates. […] The stabilization (ΔTm) is calculated from comparison of Tm of the fluorescently labeled oligonucleotide in the presence or absence of the ligand. […]
The fluorescence resonance energy transfer (FRET) occurs between two dyes (5'-FAM as donor and 3'- TAMRA as acceptor) linked at both extremities of a DNA oligonucleotide. […]

[1] = Intrinsic clearance in rat hepatocytes; assay type: in vitro ADME
Experimental: All compounds (2–11, 25–29) were screened for their logD and solubility at pH 7.4 and for their intrinsic clearance in rat hepatocytes and human microsomes (Table S2). […] Replacing the basic amine side chain to a methyl substituent in the quinazolines (25–29) still retained good solubility (134 to over 1000 μM) but increased clearance in both rat hepatocytes and human microsomes. The logD was low for compounds with a basic amine side chain (2–11) and increased slightly when the amine was replaced with a methyl (25–29). As expected, additional substituents also affected the logD with the chloro-substituents increasing logD the most.
a Intrinsic clearance in rat hepatocytes ((μL/min)/10^6 cells).b Intrinsic clearance in human microsomes (μL/min/mg). […]

Pu24T c-MYC G4 structure = assay: Kd for binding to the Pu24T c-MYC G4 structure (supplementary CSV); design: species or system human
Experimental: 5′-Cy5 labeled G4 DNAs for this study were purchased from Eurofins Genomics. Stock solutions were prepared in water at 100 μM concentration. The sequences used are listed in Supporting Information Table S1. The G4 DNA sequences were folded in KCl buffer (10 mM phosphate, 100 mM KCl, pH 7.4) by heating at 95 °C for 5 min and then cooling to room temperature. All the experiments were performed in 10 mM phosphate pH 7.4, 100 mM KCl, and 0.05% Tween20. The labeled DNA concentration is held constant at 25 nM, and ligand concentration is varied depending on ligands Kd (16 1:3 dilutions). The samples were loaded into standard MST graded glass capillaries and initial fluorescence intensity of the capillary was measured using Monolith NT.115 (Nano Temper, Germany) with 20% LED power. The change in fluorescence with ligand’s concentrations were plotted in Excel and fitted through nonlinear equation to obtain the binding constants.
The Supporting Information is available free of charge at https://pubs.acs.org/doi/10.1021/acs.jmedchem.3c02127. • Experimental procedures and data; assay data, computational results, and all cell data; NMR (^1H and ^13C) spectra for all compounds (with the exception of a few intermediates); and HPLC UV traces for the final compounds (PDF) • Molecular formula strings and Kd values for binding to the Pu24T c-MYC G4 structure (CSV)

Cc1cc(C)c2nc(Nc3nc(C)cc(NCCCN(C)C)n3)nc(C)c2c1 [Compound 5, N4-(3-(Dimethylamino)propyl)-6-methyl-N2-(4,6,8-trimethylquinazolin-2-yl)pyrimidine-2,4-diamine]
increased thermal stability (ΔTm) (c-MYC Pu22 G4 DNA): 20 °C | Rat heps: intrinsic clearance in rat hepatocytes [1]: 1 (μL/min)/106 cells | Kd (Pu24T c-MYC G4 structure): 50 ± 4 nM

Cc1cc(C)c2nc(Nc3nc(C)cc(C)n3)nc(C)c2c1 [Compound 27, N-(4,6-Dimethylpyrimidin-2-yl)-4,6,8-trimethylquinazolin-2-amine]
increase in thermal stability (ΔTm) (c-MYC Pu22 G4 DNA; compound 8 μM): 12 °C | Rat heps: intrinsic clearance in rat hepatocytes [1]: 27 (μL/min)/106 cells | Kd (Pu24T c-MYC G4 structure): 800 ± 100 nM

Cc1cc(NCCCN(C)C)nc(Nc2ncc3ccccc3n2)n1 [Compound 2, N4-(3-(Dimethylamino)propyl)-6-methyl-N2-(quinazolin-2-yl)pyrimidine-2,4-diamine]
increased thermal stability (ΔTm) (c-MYC Pu22 G4 DNA): 7.5 °C | Rat heps: intrinsic clearance in rat hepatocytes [1]: 8 (μL/min)/106 cells | Kd (Pu24T c-MYC G4 structure): 1400 ± 300 nM

Reference: PMC10860144, “Exploring the Dispersion and Electrostatic Components in Arene–Arene Interactions between Ligands and G4 DNA to Develop G4-Ligands” (Journal of Medicinal Chemistry, 2024)
